Laboratory results published in patent US20140271517A1, “DEODORANT FORMULATION” (priority 2013, published 2014).

Assays:
[1] = test system: microorganisms responsible for the odour in perspiration; experiment: destruction of odour-causing microorganisms; conditions: disinfectant agent in the MgO/ZnO deodorant formulation, 0.5% to 1% by weight
Description: It is believed that the previously recognized synergy between the zinc and magnesium compounds has been further augmented with the disinfection capacity of a potassium and/or […]. Turning to the specific formulations, in a first embodiment, the deodorant formulation includes magnesium oxide in an amount of between 1% and 2.5% by weight and zinc oxide in an amount of between 0.5% and 1.5% by weight. In order to further augment the efficacy of the formulation, a disinfectant agent is included. As an example, potassium sulfate in an amount of between 0.5% and 1% by weight. Propylene glycol in an amount between 45% and 57% by weight is included. Other polyols may be substituted such as glycenol, etc. Sodium stearate is also present in am amount between 4% and 8% by weight. Glycerin is also present in an amount from between 6% and 10% by weight. The balance of the formulation is obviously water. […] The provision for the suspension is very convenient, since the active ingredients are all present and this suspension can used as a precursor in the formulation of other deodorizing products.

[2] = broad cross section of people; '16-20 hour protection and more'; previously presented in U.S. Pat. No. 5,512,274; cited from earlier work
[3] = reported pH of the agent; cited from earlier work

Compound | efficacy in destroying the microorganisms responsible for the odour in perspiration [1] | duration of deodorant protection [2] [h] | pH [3]
O=S(=O)([O-])[O-].[K+].[K+] [potassium sulfate] | particularly effective | – | –
[Mg+2].[OH-].[OH-] [magnesium hydroxide] | – | 16 to 20 | ~10.0
[Ca+2].[OH-].[OH-] [Lime, calcium hydroxide] | – | – | ≥ 12.5
